Measured values from paper PMC5600900 (Journal of medicinal chemistry, 2016).

The compounds below were run against WT-CXCL12 (Homo sapiens, UniProt P48061) (assay: 2D 1H-15N SOFAST-HMQC NMR titration, binding to WT-CXCL12). Settings: 2D 1H-15N SOFAST-HMQC screen of docking hits.

Row | Structure (SMILES) | binding to WT-CXCL12 (chemical shift perturbations)
1 | O=C(O)CC1c2ccccc2CCN1C(=O)Nc1cccc(F)c1 (stereo not shown) [compound 7] | induced chemical shift perturbations to residues associated with the I4/I6 binding site
2 | CC(C)O.CCCOc1ccc(C(Nc2ccc(F)cc2)P(=O)(O)O)cc1 (stereo not shown) [compound 6] | induced chemical shift perturbations to residues associated with the I4/I6 binding site
3 | O=C(O)CCn1cc(C(=O)c2ccccc2O)cc1-c1ccncc1 [compound 4] | bind non-specifically
4 | COc1ccc(C2C(C(=O)O)CC(=O)N2Cc2ccsc2)cc1 (stereo not shown) [compound 5] | bind non-specifically
